Measurements published in ChEMBL document CHEMBL1201862, “PubChem BioAssay data set” (2004).
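All cell lines were grown in 96-well plates and treated with compound for 48 hours. At the GI50, growth is halved.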 Activity calls are given as the source filed them. No stated cut-off is given here; in the data, active = GI50 up to about 1.1 µM and inactive = higher.

Tests used:
Assay in all cases: inhibition of tumour cell growth, NCI panel, 48 h
CCRF-CEM = test system: CCRF-CEM
EKVX = test system: EKVX
HOP-92 = test system: HOP-92
HT-29 = test system: HT-29
IGROV-1 = test system: IGROV-1
M14 = test system: M14
NCI-H23 = test system: NCI-H23
NCI-H460 = test system: NCI-H460
OVCAR-4 = test system: OVCAR-4
RPMI-8226 = test system: RPMI-8226
RXF 393 = test system: RXF 393
SN12C = test system: SN12C
SNB-75 = test system: SNB-75
SNB-78 = test system: SNB-78
TK-10 = test system: TK-10
UACC-257 = test system: UACC-257
XF498 = test system: XF498
SF-268 = test system: SF-268
SF-539 = test system: SF-539
MCF7 = test system: MCF7

Structure (SMILES) | GI50 (CCRF-CEM) | GI50 (EKVX) | GI50 (HOP-92) | GI50 (HT-29) | GI50 (IGROV-1) | GI50 (M14) | GI50 (NCI-H23) | GI50 (NCI-H460) | GI50 (OVCAR-4) | GI50 (RPMI-8226) | GI50 (RXF 393) | GI50 (SN12C) | GI50 (SNB-75) | GI50 (SNB-78) | GI50 (TK-10) | GI50 (UACC-257) | GI50 (XF498) | GI50 (SF-268) | GI50 (SF-539) | GI50 (MCF7)
COc1cc(C2C(C(=O)O)=C(CO)Oc3cc4c(cc32)OCO4)cc(OC)c1OC (stereo not given) | > 100 µM (inactive) | > 100 µM (inactive) | 35.6 µM (inactive) | > 100 µM (inactive) | > 100 µM (inactive) | > 100 µM (inactive) | > 100 µM (inactive) | > 100 µM (inactive) | > 100 µM (inactive) | > 100 µM (inactive) | 93.3 µM (inactive) | > 100 µM (inactive) | 40.7 µM (inactive) | > 100 µM (inactive) | > 100 µM (inactive) | > 100 µM (inactive) | > 100 µM (inactive) |  |  | 
NCCCNCCSSCc1ccccc1CSSCCNCCCN | 4.54 µM (inactive) | > 100 µM (inactive) | 25.9 µM (inactive) | 14.2 µM (inactive) | > 100 µM (inactive) | 31.9 µM (inactive) | > 100 µM (inactive) | > 100 µM (inactive) | 70.6 µM (inactive) | 27.8 µM (inactive) | > 100 µM (inactive) | > 100 µM (inactive) | 16.4 µM (inactive) | 56.5 µM (inactive) | > 100 µM (inactive) | 25 µM (inactive) | 85.1 µM (inactive) | 85.1 µM (inactive) | > 100 µM (inactive) | 
CN(C)c1ccc(N2C(=S)SC(=N\c3ccccc3)/C2=N/c2ccccc2)cc1 | > 100 µM (inactive) |  |  |  | > 100 µM (inactive) | > 100 µM (inactive) | > 100 µM (inactive) | > 100 µM (inactive) | > 100 µM (inactive) | > 100 µM (inactive) | 3.43 µM (inactive) | > 100 µM (inactive) | > 100 µM (inactive) |  |  |  |  |  |  | > 100 µM (inactive)
CC(NC(C#N)CC12CC3CC(CC(C3)C1)C2)c1ccccc1 (stereo not given) | 20.7 µM (inactive) | > 100 µM (inactive) | 0.753 µM (active) | 31.3 µM (inactive) | 32.4 µM (inactive) | 54.8 µM (inactive) |  | 26.5 µM (inactive) |  | 15.5 µM (inactive) |  |  |  |  | > 100 µM (inactive) | > 100 µM (inactive) |  | 47.4 µM (inactive) |  | 48.9 µM (inactive)
NC(=S)N/N=C1\c2ccccc2CCC1CCC1(O)CCc2ccccc2C1=O (stereo not given) | 22.6 µM (inactive) | 11.4 µM (inactive) |  | 19.8 µM (inactive) | 37.8 µM (inactive) | 16.4 µM (inactive) | 25.5 µM (inactive) | 16 µM (inactive) | 34 µM (inactive) | 24.9 µM (inactive) | 16.2 µM (inactive) | 18.1 µM (inactive) | 15.7 µM (inactive) |  | 13.6 µM (inactive) | 18 µM (inactive) |  | 42.1 µM (inactive) | 15.3 µM (inactive) | 17.8 µM (inactive)
COC(=O)C1=C(OC(=O)/C=C/c2ccc(Cl)cc2)C(C(=O)OC)[C@@]2(O)[C@@H](C(=O)OC)[C@H](C)C[C@@H]1[C@@H]2C(=O)OC (stereo not given in full) | 13.2 µM (inactive) | 22.5 µM (inactive) |  | 26.1 µM (inactive) | 3.94 µM (inactive) | 23.2 µM (inactive) | 19.5 µM (inactive) | 27.2 µM (inactive) | 27.1 µM (inactive) |  | 27.2 µM (inactive) | 19 µM (inactive) | 25.9 µM (inactive) |  | 62.8 µM (inactive) | 45.1 µM (inactive) |  | 16.7 µM (inactive) | 17.6 µM (inactive) | 
C=C1C(=O)OC2C1CC1OC2C(C)CCC/C(C)=C\CCC1(C)O (stereo not given) | 6.82 µM (inactive) | 20.4 µM (inactive) | 10.7 µM (inactive) | 30.3 µM (inactive) | 13.9 µM (inactive) |  | 9.25 µM (inactive) | 20.1 µM (inactive) | 18.2 µM (inactive) | 7.6 µM (inactive) | 5.7 µM (inactive) | 19.5 µM (inactive) | 15.3 µM (inactive) | 12.1 µM (inactive) |  | 22.6 µM (inactive) | 12 µM (inactive) | 13 µM (inactive) | 16.5 µM (inactive) | 15.3 µM (inactive)
COc1ccc2c(c1)c1cc(OC)ccc1n2CCCCOc1ccc(-c2c3ccccc3c(-c3ccc(OCCCCn4c5ccc(OC)cc5c5cc(OC)ccc54)cc3)c3ccccc23)cc1 | > 100 µM (inactive) | > 100 µM (inactive) | > 100 µM (inactive) |  | > 100 µM (inactive) | > 100 µM (inactive) |  |  | > 100 µM (inactive) |  |  | > 100 µM (inactive) | > 100 µM (inactive) |  | > 100 µM (inactive) |  | > 100 µM (inactive) | > 100 µM (inactive) | > 100 µM (inactive) | 
CCN(CC)CCCNc1ncc(C)c2[nH]c3ccncc3c12 | 21.6 µM (inactive) | 16.1 µM (inactive) | 6.1 µM (inactive) | 4.22 µM (inactive) | 5.37 µM (inactive) |  | 12.7 µM (inactive) | 3.33 µM (inactive) | 4.5 µM (inactive) | 50.5 µM (inactive) | 6.61 µM (inactive) | 4.88 µM (inactive) | 12.4 µM (inactive) | 19.1 µM (inactive) |  | 12.5 µM (inactive) | 11.4 µM (inactive) | 6.75 µM (inactive) | 6.5 µM (inactive) | 3.31 µM (inactive)
COc1ccc(C(=O)/C(Br)=C/C(=O)O)cc1 |  | 37.8 µM (inactive) | 28.4 µM (inactive) | 76.7 µM (inactive) |  | 26.2 µM (inactive) | 26.8 µM (inactive) | 23.2 µM (inactive) | 32.7 µM (inactive) | 11.5 µM (inactive) |  | 37.8 µM (inactive) | 35.5 µM (inactive) |  | 51.3 µM (inactive) | 26.9 µM (inactive) | 4.28 µM (inactive) | 31.6 µM (inactive) |  | 9.75 µM (inactive)
COc1cc(C2c3cc4c(cc3[C@@H](Nc3cnc5ccccc5c3)C3COC(=O)[C@H]23)OCO4)cc(OC)c1O (stereo not given in full) | 0.043 µM (active) | 1.27 µM (inactive) | 0.381 µM (active) | 0.634 µM (active) | 1.39 µM (inactive) |  | 0.311 µM (active) | < 0.01 µM (active) | 1.05 µM (active) | 0.159 µM (active) | 0.912 µM (active) | 0.338 µM (active) | 0.478 µM (active) | 2.69 µM (inactive) |  | 0.839 µM (active) | 0.474 µM (active) | 0.327 µM (active) | 0.168 µM (active) | 0.0834 µM (active)
COC1=CC(=O)C=C(OC)C1=O [2,6-DIMETHOXYQUINONE] | 1.38 µM (inactive) | 5.69 µM (inactive) | 4.16 µM (inactive) | 27.4 µM (inactive) | 11.3 µM (inactive) |  | 7.66 µM (inactive) | 23.7 µM (inactive) | 7.43 µM (inactive) | 6 µM (inactive) | 7.96 µM (inactive) | 15.6 µM (inactive) | 27.9 µM (inactive) | 16.8 µM (inactive) |  | 10.2 µM (inactive) | 2.99 µM (inactive) | 6.46 µM (inactive) | 16.8 µM (inactive) | 17.7 µM (inactive)
